Like-named read-outs stand apart in the source and are kept apart here. Starred links: 1 amine or outer side, 2 acyl side, 3 side chain; linkers in the order of their positions; H or OH if unused. Positions of bridges follow the written chain, without caps; N, C: chain ends. Non-standard residues stand in square brackets, D forms with d. Residues, ends and D or L forms follow the SMILES beside them. *: point of attachment. X34 = Cc1cc(C(=O)O)cc(C(=O)Nc2ccc(-c3ccc(C[C@H](N[*:1])C(=O)[*:2])cc3)cc2)c1; X5 = Cn1nc(C(=O)Nc2ccc(-c3ccc(C[C@H](N[*:1])C(=O)[*:2])cc3)cc2)c2ccccc21; Bip(4'-NH) = O=C([C@H](Cc1ccc(-c2ccc(N[*:3])cc2)cc1)N[*:1])[*:2]; Indazole3carbonyl(1-CH2COOH) = O=C(O)Cn1nc(C(=O)*)c2ccccc21; X72 = N=C(N)Nc1ccc(CCNC(=N)NCCC[C@@H](N[*:1])C(=O)[*:2])cc1; X23 = N=C(N)Nc1ccc(CNC(=N)NCCC[C@@H](N[*:1])C(=O)[*:2])cc1; X25 = N=C(N)Nc1cccc(CNC(=N)NCCC[C@@H](N[*:1])C(=O)[*:2])c1; X1 = N=C(NCCC[C@@H](N[*:1])C(=O)[*:2])NCCc1ccc2ccccc2c1; X55 = N=C(NCCC[C@@H](N[*:1])C(=O)[*:2])NCCc1cccnc1; Ala(morpholin-4-yl) = N[C@@H](CN1CCOCC1)C(=O)O; Benzoyl(3-OCH2COOH) = O=C(O)COc1cccc(C(=O)*)c1; Bip = N[C@@H](Cc1ccc(-c2ccccc2)cc1)C(=O)O; Cha = N[C@@H](CC1CCCCC1)C(=O)O; Sar = CNCC(=O)O
Target: TNFα (Homo sapiens, UniProt P01375)
Assay: TNF-Induced HEK-Blue Assay
Type: cell-based
[1] = HEK-Blue-CD40L cells, NF-kB-driven secreted alkaline phosphatase reporter, TNFα 0.5 ng/ml, 18 h, read-out: TNF induced HEK-Blue assay IC50 value

Sequence of TNFα (P01375 77-233 limits assumed): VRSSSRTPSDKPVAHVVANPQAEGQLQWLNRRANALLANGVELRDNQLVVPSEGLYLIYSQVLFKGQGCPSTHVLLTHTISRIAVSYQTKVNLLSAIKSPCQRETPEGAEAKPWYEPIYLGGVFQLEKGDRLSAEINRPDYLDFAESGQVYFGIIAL

Structure (SMILES)	IC50	IC50 [1]
CC(C)C[C@@H]1NC(=O)[C@H](CCCNC(=N)N)NC(=O)[C@H](C(C)C)NC(=O)[C@@H]2CCCN2C(=O)[C@H](C(C)C)NC(=O)[C@@H](CCCNC(=N)NCc2ccc(NC(=N)N)cc2)NC(=O)[C@H](CC(=O)O)NC(=O)[C@@H]2CCCN2C(=O)CN(C)C(=O)[C@H](Cc2ccc(-c3ccc(NC(=O)c4nn(CC(=O)O)c5ccccc45)cc3)cc2)NC(=O)[C@H](Cc2ccc(-c3ccccc3)cc2)NC(=O)[C@H](CN2CCOCC2)NC(=O)CSC[C@@H](C(=O)NCC(N)=O)NC1=O [Example 432] ({CH2CO}-[Ala(morpholin-4-yl)][Bip][Bip(4'-NH)](Indazole3carbonyl(1-CH2COOH))[Sar]PD[X23]VPVRLCG-NH2; thioether N-13)	50 to 200 nM	
CC(C)C[C@@H]1NC(=O)[C@H](CCCNC(=N)N)NC(=O)[C@H](C(C)C)NC(=O)[C@@H]2CCCN2C(=O)[C@H](C(C)C)NC(=O)[C@@H](CCCNC(=N)NCCc2ccc3ccccc3c2)NC(=O)[C@H](CC(=O)O)NC(=O)[C@@H]2CCCN2C(=O)CN(C)C(=O)[C@H](Cc2ccc(-c3ccc(NC(=O)c4nn(CC(=O)O)c5ccccc45)cc3)cc2)NC(=O)[C@H](Cc2ccc(-c3ccccc3)cc2)NC(=O)[C@H](CN2CCOCC2)NC(=O)CSC[C@@H](C(=O)NCC(N)=O)NC1=O [Example 433] ({CH2CO}-[Ala(morpholin-4-yl)][Bip][Bip(4'-NH)](Indazole3carbonyl(1-CH2COOH))[Sar]PD[X1]VPVRLCG-NH2; thioether N-13)	50 to 200 nM	
CC(C)C[C@@H]1NC(=O)[C@H](CCCNC(=N)N)NC(=O)[C@H](C(C)C)NC(=O)[C@@H]2CCCN2C(=O)[C@H](C(C)C)NC(=O)[C@@H](CCCNC(=N)NCCc2cccnc2)NC(=O)[C@H](CC(=O)O)NC(=O)[C@@H]2CCCN2C(=O)CN(C)C(=O)[C@H](Cc2ccc(-c3ccc(NC(=O)c4nn(CC(=O)O)c5ccccc45)cc3)cc2)NC(=O)[C@H](Cc2ccc(-c3ccccc3)cc2)NC(=O)[C@H](CN2CCOCC2)NC(=O)CSC[C@@H](C(=O)NCC(N)=O)NC1=O [Example 434] ({CH2CO}-[Ala(morpholin-4-yl)][Bip][Bip(4'-NH)](Indazole3carbonyl(1-CH2COOH))[Sar]PD[X55]VPVRLCG-NH2; thioether N-13)	50 to 200 nM	
CC(C)C[C@@H]1NC(=O)[C@H](CCCNC(=N)N)NC(=O)[C@H](C(C)C)NC(=O)[C@@H]2CCCN2C(=O)[C@H](C(C)C)NC(=O)[C@@H](CCCNC(=N)NCc2cccc(NC(=N)N)c2)NC(=O)[C@H](CC(=O)O)NC(=O)[C@@H]2CCCN2C(=O)CN(C)C(=O)[C@H](Cc2ccc(-c3ccc(NC(=O)c4nn(CC(=O)O)c5ccccc45)cc3)cc2)NC(=O)[C@H](Cc2ccc(-c3ccccc3)cc2)NC(=O)[C@H](CN2CCOCC2)NC(=O)CSC[C@@H](C(=O)NCC(N)=O)NC1=O [Example 435] ({CH2CO}-[Ala(morpholin-4-yl)][Bip][Bip(4'-NH)](Indazole3carbonyl(1-CH2COOH))[Sar]PD[X25]VPVRLCG-NH2; thioether N-13)	< 50 nM	
CC(C)C[C@@H]1NC(=O)[C@H](CCCNC(=N)N)NC(=O)[C@H](C(C)C)NC(=O)[C@@H]2CCCN2C(=O)[C@H](C(C)C)NC(=O)[C@@H](CCCNC(=N)NCCc2ccc(NC(=N)N)cc2)NC(=O)[C@H](CC(=O)O)NC(=O)[C@@H]2CCCN2C(=O)CN(C)C(=O)[C@H](Cc2ccc(-c3ccc(NC(=O)c4nn(CC(=O)O)c5ccccc45)cc3)cc2)NC(=O)[C@H](Cc2ccc(-c3ccccc3)cc2)NC(=O)[C@H](CN2CCOCC2)NC(=O)CSC[C@@H](C(=O)NCC(N)=O)NC1=O [Example 436] ({CH2CO}-[Ala(morpholin-4-yl)][Bip][Bip(4'-NH)](Indazole3carbonyl(1-CH2COOH))[Sar]PD[X72]VPVRLCG-NH2; thioether N-13)	< 50 nM	
CC(C)C[C@@H]1NC(=O)[C@H](CCCNC(=N)N)NC(=O)[C@H](C(C)C)NC(=O)[C@@H]2CCCN2C(=O)[C@H](C(C)C)NC(=O)[C@@H](CCCNC(=N)NCc2cccc(NC(=N)N)c2)NC(=O)[C@H](CC(=O)O)NC(=O)[C@@H]2CCCN2C(=O)CN(C)C(=O)[C@H](Cc2ccc(-c3ccc(NC(=O)c4nn(C)c5ccccc45)cc3)cc2)NC(=O)[C@H](Cc2ccc(-c3ccccc3)cc2)NC(=O)[C@H](CN2CCOCC2)NC(=O)CSC[C@@H](C(=O)NCC(N)=O)NC1=O [Example 438] ({CH2CO}-[Ala(morpholin-4-yl)][Bip][X5][Sar]PD[X25]VPVRLCG-NH2; thioether N-13)		50 to 200 nM
CC(C)C[C@@H]1NC(=O)[C@H](CCCNC(=N)N)NC(=O)[C@H](C(C)C)NC(=O)[C@@H]2CCCN2C(=O)[C@H](C(C)C)NC(=O)[C@@H](CCCNC(=N)NCCc2ccc(NC(=N)N)cc2)NC(=O)[C@H](CC(=O)O)NC(=O)[C@@H]2CCCN2C(=O)CN(C)C(=O)[C@H](Cc2ccc(-c3ccc(NC(=O)c4nn(C)c5ccccc45)cc3)cc2)NC(=O)[C@H](Cc2ccc(-c3ccccc3)cc2)NC(=O)[C@H](CN2CCOCC2)NC(=O)CSC[C@@H](C(=O)NCC(N)=O)NC1=O [Example 439] ({CH2CO}-[Ala(morpholin-4-yl)][Bip][X5][Sar]PD[X72]VPVRLCG-NH2; thioether N-13)		50 to 200 nM
CC[C@H](C)[C@@H]1NC(=O)[C@@H](CCCNC(=N)N)NC(=O)[C@H](CC(=O)O)NC(=O)[C@H](Cc2cnc[nH]2)NC(=O)CN(C)C(=O)[C@H](Cc2ccc(-c3ccc(NC(=O)c4cccc(OCC(=O)O)c4)cc3)cc2)NC(=O)[C@H](Cc2ccc(-c3ccccc3)cc2)NC(=O)[C@H](CN2CCOCC2)NC(=O)CSC[C@@H](C(=O)NCC(N)=O)NC(=O)[C@H](CC(C)C)NC(=O)[C@H](Cc2cnc[nH]2)NC(=O)[C@H](C(C)C)NC(=O)[C@@H]2CCCN2C1=O [Example 441] ({CH2CO}-[Ala(morpholin-4-yl)][Bip][Bip(4'-NH)](Benzoyl(3-OCH2COOH))[Sar]HD[dR]IPVHLCG-NH2; thioether N-13)		< 50 nM
CC[C@H](C)[C@@H]1NC(=O)[C@@H](CCCNC(=N)N)NC(=O)[C@H](CC(=O)O)NC(=O)[C@@H]2CCCN2C(=O)CN(C)C(=O)[C@H](Cc2ccc(-c3ccc(NC(=O)c4cccc(OCC(=O)O)c4)cc3)cc2)NC(=O)[C@H](Cc2ccc(-c3ccccc3)cc2)NC(=O)[C@H](CC2CCCCC2)NC(=O)CSC[C@@H](C(=O)NCC(N)=O)NC(=O)[C@H](CC(C)C)NC(=O)[C@H](Cc2cnc[nH]2)NC(=O)[C@H](C(C)C)NC(=O)[C@@H]2CCCN2C1=O [Example 442] ({CH2CO}-[Cha][Bip][Bip(4'-NH)](Benzoyl(3-OCH2COOH))[Sar]PD[dR]IPVHLCG-NH2; thioether N-13)		50 to 200 nM
CC[C@H](C)[C@@H]1NC(=O)[C@@H](CCCNC(=N)N)NC(=O)[C@H](CC(=O)O)NC(=O)[C@H](Cc2cnc[nH]2)NC(=O)CN(C)C(=O)[C@H](Cc2ccc(-c3ccc(NC(=O)c4cc(C)cc(C(=O)O)c4)cc3)cc2)NC(=O)[C@H](Cc2ccc(-c3ccccc3)cc2)NC(=O)[C@H](CC2CCCCC2)NC(=O)CSC[C@@H](C(=O)NCC(N)=O)NC(=O)[C@H](CC(C)C)NC(=O)[C@H](Cc2cnc[nH]2)NC(=O)[C@H](C(C)C)NC(=O)[C@@H]2CCCN2C1=O [Example 443] ({CH2CO}-[Cha][Bip][X34][Sar]HD[dR]IPVHLCG-NH2; thioether N-13)		< 50 nM

Reference: US20250145665A1, “MACROCYCLIC PEPTIDES USEFUL AS MODULATORS OF TNF ALPHA” (Bristol-Myers Squibb Company, priority 2023, published 2025)
